Drawing on PMC3492849 (The Febs Journal, 2012), this text covers IC50 for four molecules.

Molecules are shown by their SMILES.

For the experiment, the target named is PKD1L3/PKD2L1 (Mus musculus, UniProt A2A259+Q2EG98). As to the kind of experiment: Fura-2 Ca2+ imaging, neutralization method. In kind it is cell-based.
Chain of PKD1L3/PKD2L1 (A2A259 whole entry): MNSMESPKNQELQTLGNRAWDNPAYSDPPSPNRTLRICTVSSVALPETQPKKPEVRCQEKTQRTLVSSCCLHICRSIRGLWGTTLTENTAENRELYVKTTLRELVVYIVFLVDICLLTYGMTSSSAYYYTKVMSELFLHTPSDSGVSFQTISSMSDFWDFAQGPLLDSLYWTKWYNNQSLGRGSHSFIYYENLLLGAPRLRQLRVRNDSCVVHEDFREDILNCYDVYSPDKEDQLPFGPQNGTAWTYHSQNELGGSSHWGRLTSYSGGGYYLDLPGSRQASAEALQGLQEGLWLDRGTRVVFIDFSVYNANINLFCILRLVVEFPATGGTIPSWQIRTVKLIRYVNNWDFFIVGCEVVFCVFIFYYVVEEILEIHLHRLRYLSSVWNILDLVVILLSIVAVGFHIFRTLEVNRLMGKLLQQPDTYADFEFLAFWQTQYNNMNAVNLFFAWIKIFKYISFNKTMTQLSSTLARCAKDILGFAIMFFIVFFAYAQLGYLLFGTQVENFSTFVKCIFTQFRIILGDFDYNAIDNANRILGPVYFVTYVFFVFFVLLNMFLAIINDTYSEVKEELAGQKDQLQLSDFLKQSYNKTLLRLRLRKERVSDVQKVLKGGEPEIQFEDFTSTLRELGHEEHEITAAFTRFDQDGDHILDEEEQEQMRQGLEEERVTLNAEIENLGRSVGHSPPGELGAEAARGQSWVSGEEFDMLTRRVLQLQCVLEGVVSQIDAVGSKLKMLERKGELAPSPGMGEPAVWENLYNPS
Chain of PKD1L3/PKD2L1 (Q2EG98 21-2151): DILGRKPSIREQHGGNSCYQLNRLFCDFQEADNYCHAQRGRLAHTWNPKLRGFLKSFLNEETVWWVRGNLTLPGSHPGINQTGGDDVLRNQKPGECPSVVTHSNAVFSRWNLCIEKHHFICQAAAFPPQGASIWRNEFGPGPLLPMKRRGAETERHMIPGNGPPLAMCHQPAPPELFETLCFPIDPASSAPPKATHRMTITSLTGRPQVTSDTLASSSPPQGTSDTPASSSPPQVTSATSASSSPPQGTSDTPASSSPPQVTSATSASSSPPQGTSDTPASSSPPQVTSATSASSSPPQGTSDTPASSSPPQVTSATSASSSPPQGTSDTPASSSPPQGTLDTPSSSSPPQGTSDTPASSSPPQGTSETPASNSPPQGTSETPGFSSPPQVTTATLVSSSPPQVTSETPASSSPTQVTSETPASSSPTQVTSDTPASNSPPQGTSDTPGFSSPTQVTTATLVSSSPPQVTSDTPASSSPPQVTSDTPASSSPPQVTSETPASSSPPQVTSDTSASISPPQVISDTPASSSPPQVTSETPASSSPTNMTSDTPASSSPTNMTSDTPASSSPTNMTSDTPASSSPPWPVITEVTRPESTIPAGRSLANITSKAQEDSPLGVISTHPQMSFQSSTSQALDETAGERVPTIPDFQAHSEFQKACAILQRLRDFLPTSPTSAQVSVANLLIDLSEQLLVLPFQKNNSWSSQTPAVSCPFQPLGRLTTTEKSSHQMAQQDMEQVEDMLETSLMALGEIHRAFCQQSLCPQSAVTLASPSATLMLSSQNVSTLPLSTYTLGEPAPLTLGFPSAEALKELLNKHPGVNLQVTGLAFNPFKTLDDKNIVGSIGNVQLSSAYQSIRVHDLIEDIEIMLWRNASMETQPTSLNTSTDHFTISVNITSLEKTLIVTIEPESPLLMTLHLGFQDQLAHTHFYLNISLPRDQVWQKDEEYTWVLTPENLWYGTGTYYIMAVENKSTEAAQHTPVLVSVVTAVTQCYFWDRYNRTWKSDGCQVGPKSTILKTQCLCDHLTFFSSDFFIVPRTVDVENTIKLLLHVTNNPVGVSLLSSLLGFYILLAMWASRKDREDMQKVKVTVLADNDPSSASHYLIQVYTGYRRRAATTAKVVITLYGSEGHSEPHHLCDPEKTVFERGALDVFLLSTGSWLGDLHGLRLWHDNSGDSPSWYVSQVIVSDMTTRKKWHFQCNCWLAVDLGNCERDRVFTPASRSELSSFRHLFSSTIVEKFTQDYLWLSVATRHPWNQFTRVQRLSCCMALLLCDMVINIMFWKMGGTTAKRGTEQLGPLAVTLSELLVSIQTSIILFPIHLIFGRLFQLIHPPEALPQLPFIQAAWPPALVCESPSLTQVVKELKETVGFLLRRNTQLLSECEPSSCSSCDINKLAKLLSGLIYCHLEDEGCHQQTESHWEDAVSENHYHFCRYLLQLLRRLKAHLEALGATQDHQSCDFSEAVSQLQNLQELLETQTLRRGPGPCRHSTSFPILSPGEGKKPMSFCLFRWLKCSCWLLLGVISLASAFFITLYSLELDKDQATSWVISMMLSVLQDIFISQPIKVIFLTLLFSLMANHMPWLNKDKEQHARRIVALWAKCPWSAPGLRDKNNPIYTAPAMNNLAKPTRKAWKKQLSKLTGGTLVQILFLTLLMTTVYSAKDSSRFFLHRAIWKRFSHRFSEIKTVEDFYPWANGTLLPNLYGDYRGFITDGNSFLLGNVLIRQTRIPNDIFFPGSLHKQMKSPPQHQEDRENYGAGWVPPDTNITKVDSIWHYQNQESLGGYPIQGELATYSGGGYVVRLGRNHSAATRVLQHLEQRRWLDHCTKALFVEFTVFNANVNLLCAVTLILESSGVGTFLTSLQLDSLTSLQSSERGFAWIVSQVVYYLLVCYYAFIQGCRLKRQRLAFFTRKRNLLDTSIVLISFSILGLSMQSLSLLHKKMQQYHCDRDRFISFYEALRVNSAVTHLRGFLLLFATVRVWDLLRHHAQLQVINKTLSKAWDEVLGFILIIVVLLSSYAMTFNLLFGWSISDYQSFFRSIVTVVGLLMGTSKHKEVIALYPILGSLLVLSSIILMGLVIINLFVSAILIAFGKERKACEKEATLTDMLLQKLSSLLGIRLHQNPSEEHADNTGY

One may read the IC50 as the point on the concentration scale where inhibition reaches its midpoint. Read a high IC50 as weaker potency in that assay. `COc1cc(CNC(=O)CCCCCCC(C)C)ccc1O` [dihydrocapsaicin]: the IC50 was found to be 55 ± 14.2 µM.
Under `COc1cc(CNC(=O)CCCC/C=C/C(C)C)ccc1O` [capsaicin] stands 32.5 ± 10.2 µM.
For `COc1ccc(CCCOC(Cn2ccnc2)c2ccc(OC)cc2)cc1` (stereo not shown) [SKF96365] the value was 48.1 ± 10.8 µM; for `CCCCC[C@H](O)CC(=O)CCc1ccc(O)c(OC)c1` [6-gingerol], 85.9 ± 34.7 µM.
